The source of these data is publication PMC2934701 (The Journal of Biological Chemistry, 2010).

Test in all cases: Fluo-4 calcium assay, HEK293T + Galpha16gust44
Common to all, as to format: cell-based

Test [1] has as its target T1, hTAS2R16 (ssr3-hTAS2R16) (Homo sapiens, UniProt Q9NYV7).
T1 sequence (Q9NYV7 1-291): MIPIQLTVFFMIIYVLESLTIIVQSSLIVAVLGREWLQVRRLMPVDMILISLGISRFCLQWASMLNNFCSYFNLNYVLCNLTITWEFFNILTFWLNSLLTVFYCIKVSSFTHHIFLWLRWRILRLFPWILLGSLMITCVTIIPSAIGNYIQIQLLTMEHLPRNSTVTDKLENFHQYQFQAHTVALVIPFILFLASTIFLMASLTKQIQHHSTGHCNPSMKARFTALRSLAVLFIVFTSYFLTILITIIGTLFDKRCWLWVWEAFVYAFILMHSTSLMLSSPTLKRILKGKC

Test [2] addresses T2, hTAS2R16 (ssr3-hTAS2R16) (Homo sapiens, UniProt Q9NYV7, F93T).
T2 sequence (Q9NYV7 1-291 F93T): T1 sequence (Q9NYV7 1-291) with F93T

Test [3] has as its target T3, hTAS2R16 (ssr3-hTAS2R16) (Homo sapiens, UniProt Q9NYV7, H181T).
T3 sequence (Q9NYV7 1-291 H181T): T1 sequence (Q9NYV7 1-291) with H181T

Test [4] has as its target T4, hTAS2R16 (ssr3-hTAS2R16) (Homo sapiens, UniProt Q9NYV7, W94Y).
T4 sequence (Q9NYV7 1-291 W94Y): T1 sequence (Q9NYV7 1-291) with W94Y

Residue numbers refer to the chain shown, from its start.

As a reminder, the EC50 is the concentration needed to bring the measured effect to its halfway point. For the molecule `OCc1ccccc1O[C@@H]1O[C@H](CO)[C@@H](O)[C@H](O)[C@H]1O` [salicin], the EC50 at hTAS2R16 (ssr3-hTAS2R16) [1] worked out at 0.22 mM; on hTAS2R16 (ssr3-hTAS2R16) [2], 12 mM; on hTAS2R16 (ssr3-hTAS2R16) [3], 1.84 mM; on hTAS2R16 (ssr3-hTAS2R16) [4] it was 1.36 mM.
